US12052991B2, “Substituted pyridinyloxybenzenes and salts thereof and use thereof as herbicidal agents” (Bayer Aktiengesellschaft, priority 2018, dated 2024)

Assays:
Assay type in all cases: in vivo
Stellaria media (STEME) [1] = assay: Herbicidal post-emergence action (Table B8); conditions: visual rating about 3 weeks after treatment, 100% = plants have died, 0% = like control plants
Procedure, shortened: (§1)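 Weeds grown from seed in sandy loam in the greenhouse were sprayed at the one-leaf stage, 2 to 3 weeks after sowing, with WP or EC formulations in water plus 0.5% additive at 600 L/ha. Rates corresponded to 1280 or 320 g/ha; damage was rated visually versus untreated controls after about 3 weeks.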

Veronica persica (VERPE) [2] = assay: Herbicidal pre-emergence action, test C (Table C12); conditions: dosage 1280 g/ha, visual scoring vs untreated controls
Procedure, shortened: (§2)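 Sandy loam, doubly sown pots; surface spray pre-emergence; 1280 or 320 g/ha; 0.5% additive; 600 L/ha. Greenhouse, ~3 weeks. Visual % vs untreated.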

[3] = test system: Alopecurus myosuroides (ALOMY); assay: Herbicidal pre-emergence action, test C (Table C9); conditions: visual scoring after about 3 weeks, 100% = plants have died, 0% = like control plants
Text: (§3) Seeds of mono- and dicotyledonous weed plants were placed in plastic pots in sandy loam soil (doubly sown with one species each of mono- or dicotyledonous weed plants per pot) and covered with soil. The compounds of the invention, formulated in the form of wettable powders (WP) or as emulsion concentrates (EC), were then applied onto the surface of the covering soil as aqueous suspension or emulsion with addition of 0.5% additive at a water application rate of 600 liters per hectare (converted). After the treatment, the pots were placed in a greenhouse and kept under good growth conditions for the test plants. After about 3 weeks, the effect of the preparations was scored visually in comparison with untreated controls as percentages. For example, 100% activity=the plants have died, 0% activity=like control plants. Tables C1 to C12 below show the effects of selected compounds of the general formula (I) according to Table 1 on various harmful plants and an application rate corresponding to 1280 or 320 g/ha, which were obtained by the experimental procedure mentioned above.

Bassia scoparia (KCHSC) [4] = assay: Herbicidal post-emergence action (Table B11); conditions: visual rating about 3 weeks after treatment, 100% = plants have died, 0% = like control plants
Procedure, shortened: as §1

[5] = test system: Digitaria sanguinalis (DIGSA); assay: Herbicidal pre-emergence action, test C (Table C10); conditions: dosage 1280 g/ha; visual scoring after about 3 weeks; 100% = plants have died, 0% = like control plants
Procedure, shortened: as §2

[6] = test system: Amaranthus retroflexus (AMARE); assay: Herbicidal pre-emergence action, test C (Table C6); conditions: visual scoring after about 3 weeks, 100% = plants have died, 0% = like control plants
Procedure, shortened: as §2

[7] = test system: Digitaria sanguinalis (DIGSA); assay: Herbicidal post-emergence action (Table B10); conditions: dosage 1280 g/ha; visual rating about 3 weeks after treatment; 100% = plants have died, 0% = like control plants
Procedure, shortened: as §1

Bassia scoparia (KCHSC) [8] = assay: Herbicidal pre-emergence action, test C (Table C11); conditions: visual scoring vs untreated controls
Text: as §3

Stellaria media (STEME) [9] = assay: Herbicidal pre-emergence action, test C (Table C8); conditions: visual scoring after about 3 weeks, 100% = plants have died, 0% = like control plants
Procedure, shortened: as §2

[10] = test system: Alopecurus myosuroides (ALOMY); assay: Herbicidal post-emergence action (Table B9); conditions: rated visually after about 3 weeks, 100% = plants have died, 0% = like control plants
Procedure, shortened: as §1

[11] = test system: harmful plants ABUTH, AMARE, ECHCG, LOLRI, MATIN, POAAN, SETVI, STEME, ALOMY, DIGSA, KCHSC and VERPE; assay: Herbicidal pre-emergence action (test C), summary of Tables C1-C12; conditions: application rate of 1280 or 320 g of active ingredient per hectare; summary in words
Procedure, shortened: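 Pre-emergence pot test in sandy loam: WP or EC formulations were sprayed onto the covering soil with 0.5% additive at 600 L/ha water, at 1280 or 320 g/ha. Plants were kept in the greenhouse, and activity was rated visually about 3 weeks later as % versus untreated controls (100% = dead).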

Veronica persica (VERPE) [12] = assay: Herbicidal post-emergence action (Table B12); conditions: visual rating about 3 weeks after treatment, 100% = plants have died, 0% = like control plants
Procedure, shortened: as §1

[13] = test system: harmful plants ABUTH, AMARE, ECHCG, LOLRI, MATIN, POAAN, SETVI, STEME, ALOMY, DIGSA, KCHSC and VERPE; assay: Herbicidal post-emergence action, summary of Tables B1-B12; conditions: application rate of 1280 or 320 g of active ingredient per hectare; summary in words
Procedure, shortened: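 Greenhouse weeds in sandy loam treated post-emergence at the one-leaf stage, 2–3 weeks after sowing, with WP or EC formulations sprayed with 0.5% additive at 600 L/ha water, 1280 or 320 g/ha. Damage rated visually after about 3 weeks versus untreated controls (0% = like control, 100% = dead).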

[14] = test system: Matricaria inodora (MATIN); assay: Herbicidal pre-emergence action, test C (Table C7); conditions: visual scoring after about 3 weeks, 100% = plants have died, 0% = like control plants
Procedure, shortened: as §2

[15] = test system: Amaranthus retroflexus (AMARE); assay: Herbicidal post-emergence action (Table B6); conditions: visual rating about 3 weeks after treatment, 100% = plants have died, 0% = like control plants
Procedure, shortened: as §1

[16] = test system: Echinochloa crus-galli (ECHCG); assay: Herbicidal pre-emergence action, test C (Table C1); conditions: dosage 1280 g/ha; visual scoring after about 3 weeks; 100% = plants have died, 0% = like control plants
Text: as §3

[17] = test system: Abutilon theophrasti (ABUTH); assay: Herbicidal pre-emergence action, test C (Table C5); conditions: visual scoring after about 3 weeks, 100% = plants have died, 0% = like control plants
Procedure, shortened: as §2

[18] = test system: Abutilon theophrasti (ABUTH); assay: Herbicidal post-emergence action (Table B5); conditions: rated visually after about 3 weeks, 100% = plants have died, 0% = like control plants
Procedure, shortened: as §1

Poa annua (POAAN) [19] = assay: Herbicidal pre-emergence action, test C (Table C3); conditions: visual scoring after about 3 weeks, 100% = plants have died, 0% = like control plants
Procedure, shortened: as §2

Setaria viridis (SETVI) = assay: Herbicidal pre-emergence action, test C (Table C4); conditions: visual scoring after about 3 weeks, 100% = plants have died, 0% = like control plants
Procedure, shortened: as §2

[20] = test system: Echinochloa crus-galli (ECHCG); assay: Herbicidal post-emergence action (Table B1); conditions: rated visually after about 3 weeks, 100% = plants have died, 0% = like control plants
Procedure, shortened: as §1

Poa annua (POAAN) [21] = assay: Herbicidal post-emergence action (Table B3); conditions: rated visually after about 3 weeks, 100% = plants have died, 0% = like control plants
Procedure, shortened: as §1

Lolium rigidum (LOLRI) [22] = assay: Herbicidal post-emergence action (Table B2); conditions: 1280 g/ha; rated visually after about 3 weeks; 100% = plants have died, 0% = like control plants
Procedure: Seeds of mono- and dicotyledonous weed plants were placed in plastic pots in sandy loam soil (doubly sown with in each case one species of mono- or dicotyledonous weed plants per pot), covered with soil and cultivated in a greenhouse under controlled growth conditions. 2 to 3 weeks after sowing, the test plants were treated at the one-leaf stage. The compounds of the invention, formulated in the form of wettable powders (WP) or as emulsion concentrates (EC), were applied onto the green parts of the plants as aqueous suspension or emulsion with addition of 0.5% additive at a water application rate of 600 liters per hectare (converted). After the test plants had been kept in the greenhouse under optimum growth conditions for about 3 weeks, the activity of the preparations was rated visually in comparison to untreated controls. For example, 100% activity=the plants have died, 0% activity=like control plants. Tables B1 to B12 below show the effects of selected compounds of the general formula (I) according to Table 1 on various harmful plants and an application rate corresponding to 1280 or 320 g/ha, which were obtained by the experimental procedure mentioned above.

Lolium rigidum (LOLRI) [23] = assay: Herbicidal pre-emergence action, test C (Table C2); conditions: dosage 1280 g/ha; visual scoring after about 3 weeks; 100% = plants have died, 0% = like control plants
Text: as §3

Row | SMILES | Post-emergence action against Stellaria media (STEME) (Stellaria media (STEME) [1]; dosage 320 g/ha) | Post-emergence action against Stellaria media (STEME) (Stellaria media (STEME) [1]; dosage 1280 g/ha) | Pre-emergence action against Amaranthus retroflexus (AMARE) ([6]; dosage 320 g/ha) | Pre-emergence action against Amaranthus retroflexus (AMARE) ([6]; dosage 1280 g/ha) | Pre-emergence action against Stellaria media (STEME) (Stellaria media (STEME) [9]; dosage 320 g/ha) | Pre-emergence action against Stellaria media (STEME) (Stellaria media (STEME) [9]; dosage 1280 g/ha) | herbicidal activity against the harmful plants of Tables C1-C12 in pre-emergence treatment [11] | herbicidal activity against the harmful plants of Tables B1-B12 in post-emergence treatment [13] | Pre-emergence action against Matricaria inodora (MATIN) ([14]; dosage 1280 g/ha) | Post-emergence action against Amaranthus retroflexus (AMARE) ([15]; dosage 320 g/ha) | Post-emergence action against Amaranthus retroflexus (AMARE) ([15]; dosage 1280 g/ha) | Pre-emergence action against Echinochloa crus-galli (ECHCG) [16] | Pre-emergence action against Abutilon theophrasti (ABUTH) ([17]; dosage 320 g/ha) | Pre-emergence action against Abutilon theophrasti (ABUTH) ([17]; dosage 1280 g/ha) | Post-emergence action against Abutilon theophrasti (ABUTH) ([18]; 320 g/ha) | Post-emergence action against Abutilon theophrasti (ABUTH) ([18]; 1280 g/ha) | Pre-emergence action against Poa annua (POAAN) (Poa annua (POAAN) [19]; dosage 320 g/ha) | Pre-emergence action against Poa annua (POAAN) (Poa annua (POAAN) [19]; dosage 1280 g/ha) | Pre-emergence action against Setaria viridis (SETVI) (Setaria viridis (SETVI); dosage 1280 g/ha) | Post-emergence action against Echinochloa crus-galli (ECHCG) ([20]; 320 g/ha) | further results
1 | FC(F)c1cc(-c2ccccc2Oc2ccccn2)on1 [Example 1-38] | 100% | 100% | 100% | 100% | 100% | 100% | very good herbicidal activity | very good herbicidal activity | 100% | 100% | 100% | 100% | 100% | 100% | 100% | 100% | 100% | 100% | 100% | 90% | Pre-emergence action against Veronica persica (VERPE) (Veronica persica (VERPE) [2]): 100%; Pre-emergence action against Alopecurus myosuroides (ALOMY) ([3]; dosage 320 g/ha): 90%; Pre-emergence action against Alopecurus myosuroides (ALOMY) ([3]; dosage 1280 g/ha): 100%; Post-emergence action against Bassia scoparia (KCHSC) (Bassia scoparia (KCHSC) [4]; dosage 320 g/ha): 90%; Post-emergence action against Bassia scoparia (KCHSC) (Bassia scoparia (KCHSC) [4]; dosage 1280 g/ha): 100%; Pre-emergence action against Digitaria sanguinalis (DIGSA) [5]: 100%; Post-emergence action against Digitaria sanguinalis (DIGSA) [7]: 100%; Pre-emergence action against Bassia scoparia (KCHSC) (Bassia scoparia (KCHSC) [8]; dosage 320 g/ha): 100%; Pre-emergence action against Bassia scoparia (KCHSC) (Bassia scoparia (KCHSC) [8]; dosage 1280 g/ha): 100%; Post-emergence action against Alopecurus myosuroides (ALOMY) ([10]; 320 g/ha): 100%; Post-emergence action against Alopecurus myosuroides (ALOMY) ([10]; 1280 g/ha): 100%; Post-emergence action against Veronica persica (VERPE) (Veronica persica (VERPE) [12]; dosage 320 g/ha): 100%; Post-emergence action against Veronica persica (VERPE) (Veronica persica (VERPE) [12]; dosage 1280 g/ha): 100%; Post-emergence action against Echinochloa crus-galli (ECHCG) ([20]; 1280 g/ha): 100%; Post-emergence action against Poa annua (POAAN) (Poa annua (POAAN) [21]; 320 g/ha): 100%; Post-emergence action against Poa annua (POAAN) (Poa annua (POAAN) [21]; 1280 g/ha): 100%
2 | Fc1cccc(Oc2ccccn2)c1-c1cc(C(F)F)no1 [Example 1-16] | 100% | 100% | 100% | 100% | 100% | 100% | very good herbicidal activity | very good herbicidal activity | 100% | 100% | 100% | 90% | 100% | 100% | 100% | 100% | 100% | 100% | 100% | 90% | Post-emergence action against Lolium rigidum (LOLRI) (Lolium rigidum (LOLRI) [22]): 100%; Pre-emergence action against Matricaria inodora (MATIN) ([14]; dosage 320 g/ha): 90%; Pre-emergence action against Lolium rigidum (LOLRI) (Lolium rigidum (LOLRI) [23]): 100%; Pre-emergence action against Setaria viridis (SETVI) (Setaria viridis (SETVI); dosage 320 g/ha): 100%; Post-emergence action against Echinochloa crus-galli (ECHCG) ([20]; 1280 g/ha): 100%; Post-emergence action against Poa annua (POAAN) (Poa annua (POAAN) [21]; 320 g/ha): 100%; Post-emergence action against Poa annua (POAAN) (Poa annua (POAAN) [21]; 1280 g/ha): 100%
